Assay [1] has as its system Hepatitis C virus. As to the kind of experiment: Inhibition of Hepatitis C virus genotype 1 NS3 protease. It counts as functional.
Assay [2] has as its system Hepatitis C virus. Briefly: Antiviral activity against Hepatitis C virus genotype 1 assessed as Inhibition of RNA replication transfected in human hepatoma cells. It is filed as functional, Hepacivirus hominis.

For `CC[C@@H]1C[C@@]1(NC(=O)[C@@H]1[C@@H]2[C@H](CN1C(=O)[C@@H](NC(=O)N[C@H](CN1C(=O)CC(C)(C)CC1=O)C(C)(C)C)C(C)(C)C)C2(C)C)C(=O)C(N)=O`, the Ki in the assay on Hepatitis C virus [1] worked out at 0.058 nM. Further, the EC90 in the assay on Hepatitis C virus [2] is 1600 nM.
`CC(C)(C)[C@H](NC(=O)NC1(CS(=O)(=O)C(C)(C)C)CCCCC1)C(=O)N1C[C@H]2[C@@H]([C@H]1C(=O)NC1(C(=O)C(=O)NC3CC3)CC1)C2(C)C` yielded a Ki in the assay on Hepatitis C virus [1] of 18 nM.
On the same count and under the same terms, next, `C[C@@H]1C[C@@]1(NC(=O)[C@@H]1[C@@H]2[C@H](CN1C(=O)[C@@H](NC(=O)NC1(CS(=O)(=O)C(C)(C)C)CCCCC1)C(C)(C)C)C2(C)C)C(=O)C(=O)NC1CC1`: 3 nM.
Still for that read-out and setting: next, `CC[C@@H]1C[C@@]1(NC(=O)[C@@H]1[C@@H]2[C@H](CN1C(=O)[C@@H](NC(=O)NC1(CS(=O)(=O)C(C)(C)C)CCCCC1)C(C)(C)C)C2(C)C)C(=O)C(=O)NC1CC1`: 0.11 nM; `CCC[C@@H]1C[C@@]1(NC(=O)[C@@H]1[C@@H]2[C@H](CN1C(=O)[C@@H](NC(=O)NC1(CS(=O)(=O)C(C)(C)C)CCCCC1)C(C)(C)C)C2(C)C)C(=O)C(=O)NC1CC1`: 0.7 nM.
In the assay on Hepatitis C virus [1], `CC(C)(C)[C@H](NC(=O)NC1(CS(=O)(=O)C(C)(C)C)CCCCC1)C(=O)N1C[C@H]2[C@@H]([C@H]1C(=O)NC1(C(=O)C(=O)NC3CC3)CCC1)C2(C)C` displayed an inhibition constant (Ki) of 15 nM.
Take `CC[C@@H]1C[C@@]1(NC(=O)[C@@H]1[C@@H]2[C@H](CN1C(=O)[C@@H](NC(=O)N[C@H](CN1C(=O)CC(C)(C)CC1=O)C(C)(C)C)C(C)(C)C)C2(C)C)C(=O)C(=O)NC1CC1`: the Ki with Hepatitis C virus [1] stood at 0.082 nM. For the same compound, in the assay on Hepatitis C virus [2], the EC90 is 500 nM.
On the same counts, the results for `CC[C@@H]1C[C@@]1(NC(=O)[C@@H]1[C@@H]2[C@H](CN1C(=O)[C@@H](NC(=O)N[C@H](CN(C)S(C)(=O)=O)C(C)(C)C)C(C)(C)C)C2(C)C)C(=O)C(=O)NC1CC1` are 0.2 nM and 2700 nM.
For `CC[C@@H]1C[C@@]1(NC(=O)[C@@H]1[C@@H]2[C@H](CN1C(=O)[C@@H](NC(=O)NC1([C@@H](C)S(=O)(=O)C(C)(C)C)CCCCC1)C1(C)CCCCC1)C2(C)C)C(=O)C(=O)NC1CC1`, the inhibitory constant (Ki) in the assay on Hepatitis C virus [1] turned out to be 0.95 nM.
The same measure, in the same setting: next, `CC[C@@H]1C[C@@]1(NC(=O)[C@@H]1[C@@H]2[C@H](CN1C(=O)[C@@H](NC(=O)NC1([C@@H](C)S(=O)(=O)C(C)(C)C)CCCCC1)C1Cc3ccccc3C1)C2(C)C)C(=O)C(=O)NC1CC1`: 0.5 nM; `CC[C@@H]1C[C@@]1(NC(=O)[C@@H]1[C@@H]2[C@H](CN1C(=O)[C@@H](NC(=O)NC1(CS(=O)(=O)C(C)(C)C)CCCCC1)C1CCCCC1)C2(C)C)C(=O)C(=O)NC1CC1`: 0.6 nM.
Compound `CC[C@@H]1C[C@@]1(NC(=O)[C@@H]1[C@@H]2[C@H](CN1C(=O)[C@@H](NC(=O)N[C@H](CN1C(=O)CC(C)(C)CC1=O)C(C)(C)C)C1(C)CCCCC1)C2(C)C)C(=O)C(N)=O` came in with a Ki in the assay with Hepatitis C virus [1] of 0.023 nM. For the same compound, in the assay on Hepatitis C virus [2], the EC90 worked out at 400 nM.
In the case of `CC[C@@H]1C[C@@]1(NC(=O)[C@@H]1[C@@H]2[C@H](CN1C(=O)[C@@H](NC(=O)NC1([C@@H](C)S(=O)(=O)C(C)(C)C)CCCCC1)C1(C)CCCCC1)C2(C)C)C(=O)C(N)=O`, the Ki with Hepatitis C virus [1] is 0.015 nM. Further, the EC90 with Hepatitis C virus [2] was 400 nM.
In turn, `CC(C)(C)[C@H](NC(=O)NC1(CS(=O)(=O)C(C)(C)C)CCCCC1)C(=O)N1C[C@H]2[C@@H]([C@H]1C(=O)NC1(C(=O)C(=O)NC3CC3)CC(O)C1)C2(C)C` (stereo partly drawn) registered a Ki in the assay on Hepatitis C virus [1] of 89 nM.
On the same count and under the same terms, next, `CC1CC(NC(=O)[C@@H]2[C@@H]3[C@H](CN2C(=O)[C@@H](NC(=O)NC2(CS(=O)(=O)C(C)(C)C)CCCCC2)C(C)(C)C)C3(C)C)(C(=O)C(=O)NC2CC2)C1` (stereo partly drawn): 0.42 nM.
The same measure, in the same setting: next, `CCC1CC(NC(=O)[C@@H]2[C@@H]3[C@H](CN2C(=O)[C@@H](NC(=O)NC2(CS(=O)(=O)C(C)(C)C)CCCCC2)C(C)(C)C)C3(C)C)(C(=O)C(=O)NC2CC2)C1` (stereo partly drawn): 0.19 nM.
Consider `CC(C)(C)NC(=O)N[C@H](C(=O)N1C[C@H]2[C@@H]([C@H]1C(=O)NC(CC1CCC1)C(=O)C(N)=O)C2(C)C)C(C)(C)C` (stereo partly drawn) [BOCEPREVIR], for which, in the assay on Hepatitis C virus [1], affinity was put at a Ki of 14 nM. Moreover, the EC90 in the assay on Hepatitis C virus [2] was 350 nM.
